Test results reported in patent publication US8697694B2, “Substituted pyridine and pyrimidine derivatives and their use in treating viral infections” (priority 2008, dated 2014).

What follows are compounds tested on HCV replicon cells (assay: Cell-based HCV replicon assay (replicon RNA level by real time PCR, Taqman)). Settings: Hepatitis C virus, 72 h, HCV replicon cells, harvested day 3, replicon RNA by real time PCR; given as number; read-out: EC90 (μM) range.
Outline: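 HCV replicon cells treated 3 days with 10 serial 2-fold compound dilutions (top 25 μM to 1 μM; 0.5% DMSO, 10% FBS). Replicon RNA quantified by multiplex Taqman RT-PCR (NS5B amplicon, GAPDH control); EC50 and EC90 = concentrations giving ΔCT of 1 and 3.2 over baseline.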

Q: Which EC90 does the source give for `CCOc1cc2cc(-c3c(C)nc(NCc4c(F)cccc4F)nc3N[C@@H]3C[C@H](CO)[C@@H](O)[C@H]3O)oc2c(C)n1` [Example 50] here?
A: Its EC90 is 0.05 µM.

Q: How did the EC90 turn out when `CCOc1cc2cc(-c3c(C)nc(NCC(F)(F)F)nc3N[C@@H]3C[C@H](CO)[C@@H](O)[C@H]3O)oc2c(C)n1` [Example 29] was run?
A: Its EC90 is 0.1 µM.

Q: Which EC90 does the source give for `CON=C1[C@H](Nc2nc(NCC(F)(F)F)nc(C)c2-c2nc3ccccc3s2)C[C@H](CO)[C@H]1O` [Example 55] here?
A: Its EC90 is 3.4 µM.

Same assay, conditions: Hepatitis C virus, 72 h, HCV replicon cells, harvested day 3, replicon RNA by real time PCR; reported as range class; read-out: EC90 (μM) range

Q: How did the EC90 turn out when `Cc1ccc2oc(-c3c(Cl)nc(N)nc3N[C@@H]3C[C@H](CO)[C@@H](O)[C@H]3O)cc2n1` [Example 16] was run?
A: The EC90 was 0.5 to 5 µM.

Q: `Nc1nc(Cl)c(-c2cc3ccccc3s2)c(N[C@@H]2C[C@H](CO)[C@@H](O)[C@H]2O)n1` [Example 102] was tested. Which EC90 did it give?
A: The EC90 was over 5 µM.

Q: How did the EC90 turn out when `OC[C@H]1C[C@@H](Nc2nc(N3CCC3)nc(Cl)c2-c2nc3ccccc3s2)[C@H](O)[C@@H]1O` [Example 413] was run?
A: Its EC90 is 0.5 to 5 µM.

Q: With `COCCCNc1nc(Cl)c(-c2nc3ccccc3s2)c(N[C@@H]2C[C@H](CO)[C@@H](O)[C@H]2O)n1` [Example 222] as the compound, how does the EC90 read?
A: Its EC90 is under 0.5 µM.

Q: `Cc1ccc2oc(-c3c(Cl)nc(N)nc3N[C@@H]3C[C@H](CO)[C@@H](O)[C@H]3O)nc2c1` [Example 193] was tested. Which EC90 did it give?
A: The EC90 was over 5 µM.

Q: For `Cc1nc(NCCF)nc(N[C@@H]2C[C@H](CO)[C@@H](O)[C@H]2O)c1-c1nc2ccccc2s1` [Example 216], which EC90 is on record?
A: Its EC90 is 0.5 to 5 µM.

Same assay, conditions: Hepatitis C virus, 72 h, HCV replicon cells, harvested on day 3, replicon RNA by real time PCR; calculated EC90 reported as range class; read-out: EC90 (μM) range

Q: For `Cc1ccsc1CNc1nc(C)c(-c2nc3ccccc3s2)c(N[C@@H]2C[C@H](CO)[C@H]3OC(C)(C)O[C@H]32)n1` [Example 476], which EC90 is on record?
A: The EC90 was under 0.5 µM.

Q: With `Cc1nc(NCc2cccs2)nc(N[C@@H]2CC[C@H]3OC4(CCCCC4)O[C@@H]23)c1-c1nc2ccccc2s1` [Example 334] as the compound, how does the EC90 read?
A: Its EC90 is over 5 µM.

Q: For `COCc1cc2cc(-c3c(C)nc(NCc4nccs4)nc3N[C@@H]3C[C@H](CO)[C@H]4OC(C)(C)O[C@H]43)oc2cn1` [Example 339], which EC90 is on record?
A: Its EC90 is under 0.5 µM.

Q: How did the EC90 turn out when `Cc1nc(NCc2ncccn2)nc(N[C@@H]2C[C@H](CO)[C@@H](O)[C@H]2O)c1-c1nc2ccccc2s1` [Example 717] was run?
A: The EC90 was under 0.5 µM.

Q: Which EC90 does the source give for `Cc1nc(NCc2cccs2)nc(N[C@@H]2C[C@H](CO)[C@@H](O)[C@H]2O)c1-c1nc2ccccc2s1` [Example 329] here?
A: Its EC90 is under 0.5 µM.

Q: How did the EC90 turn out when `CCCCCNc1nc(Cl)c(-c2cc3cc(CCC)nc(C)c3o2)c(N[C@@H]2C[C@H](CO)[C@@H](O)[C@H]2O)n1` [Example 446] was run?
A: Its EC90 is under 0.5 µM.

Q: `COc1cccc(CNc2nc(C)c(-c3nc4ccccc4s3)c(N[C@@H]3C[C@H](CO)[C@H]4OC(C)(C)O[C@H]43)n2)c1` [Example 483] was tested. Which EC90 did it give?
A: Its EC90 is 0.5 to 5 µM.

Q: How did the EC90 turn out when `Cc1ccc(CNc2nc(C)c(-c3nc4ccccc4s3)c(N[C@@H]3C[C@H](CO)[C@@H](O)[C@H]3O)n2)s1` [Example 497] was run?
A: The EC90 was under 0.5 µM.

Q: `CCc1cc2cc(-c3c(C)nc(NCc4nccs4)nc3N[C@@H]3C[C@H](CO)[C@@H](O)[C@H]3O)oc2cn1` [Example 342] was tested. Which EC90 did it give?
A: The EC90 was under 0.5 µM.

Same assay, conditions: Hepatitis C virus, 72 h, HCV replicon cells, replicon RNA level by real time PCR (Taqman), harvested on day 3; calculated EC90 reported as range class; read-out: EC90 (μM) range

Q: With `Cc1nc(NCC2CC2)nc(N[C@@H]2C[C@H](CO)[C@@H](O)[C@H]2O)c1-c1nc2ccccc2n1C` [Example 530] as the compound, how does the EC90 read?
A: The EC90 was over 5 µM.

Q: `Cc1nc(NCC(C)(C)O)nc(N[C@@H]2C[C@H](CO)[C@@H](O)[C@H]2O)c1-c1nc2ccccc2s1` [Example 1014] was tested. Which EC90 did it give?
A: The EC90 was under 0.5 µM.

Q: `CCc1cc2cc(-c3c(C)nc(O)nc3N[C@@H]3C[C@H](CO)[C@@H](O)[C@H]3O)oc2cn1` [Example 1303] was tested. Which EC90 did it give?
A: Its EC90 is 0.5 to 5 µM.

Q: For `CNc1ccc2oc(-c3c(C)nc(NCC(F)(F)F)nc3N[C@@H]3C[C@H](CO)[C@@H](O)[C@H]3O)nc2c1` [Example 1064], which EC90 is on record?
A: The EC90 was over 5 µM.

Q: For `Cc1nc(NCc2cccc(N)c2)nc(N[C@@H]2C[C@H](CO)[C@H]3OC(C)(C)O[C@H]32)c1-c1nc2ccccc2s1` [Example 1111], which EC90 is on record?
A: The EC90 was 0.5 to 5 µM.

Q: For `[2H]C([2H])(Nc1nc(C)c(-c2nc3ccccc3s2)c(N[C@@H]2C[C@H](CO)[C@@H](O)[C@H]2O)n1)c1ccccc1` [Example 1245], which EC90 is on record?
A: Its EC90 is under 0.5 µM.

Q: `COc1ccccc1CNc1nc(C)c(-c2nc3ccccc3s2)c(N[C@@H]2C[C@H](CO)[C@@H](O)[C@H]2O)n1` [Example 1207] was tested. Which EC90 did it give?
A: The EC90 was 0.5 to 5 µM.

Q: `COCCNc1nc(C)c(-c2nc3cc(OC(F)F)c(OC(F)F)cc3s2)c(N[C@@H]2C[C@H](CO)[C@@H](O)[C@H]2O)n1` [Example 1004] was tested. Which EC90 did it give?
A: Its EC90 is 0.5 to 5 µM.

Q: For `COc1cc(CNc2nc(CF)c(-c3nc4ccccc4s3)c(N[C@@H]3C[C@H](CO)[C@@H](O)[C@H]3O)n2)cc(OC)c1` [Example 1121], which EC90 is on record?
A: The EC90 was 0.5 to 5 µM.

Same assay, conditions: Hepatitis C virus, 72 h, HCV replicon cells, replicon RNA level by real time PCR, harvested day 3; read-out: EC90 (μM) range

Q: With `Cc1nc(N[C@H](C)c2ccc(OC(F)(F)F)cc2)nc(N[C@@H]2C[C@H](CO)[C@@H](O)[C@@]2(C)O)c1-c1nc2cnccc2s1` [Example 1397] as the compound, how does the EC90 read?
A: Its EC90 is under 0.5 µM.

Q: With `COc1ccc(CCNc2nc(C)c(-c3nc4cnccc4s3)c(N[C@@H]3CC[C@@H](O)[C@@]3(C)O)n2)cc1Cl` [Example 1818] as the compound, how does the EC90 read?
A: Its EC90 is 0.5 to 5 µM.

Q: For `CCc1ccc([C@@H](C)Nc2nc(C)c(-c3nc4c(C)nccc4s3)c(N[C@@H]3C[C@H](CO)[C@@H](O)[C@H]3O)n2)cc1` [Example 1526], which EC90 is on record?
A: Its EC90 is under 0.5 µM.
